Assay results published in patent publication US9539257B2, “Method of treating cancer” (NOVARTIS AG, priority 2009, dated 2017).
Values joined by “and” are separate entries in the source; they are usually repeats but may differ in a detail not shown here. Equal values may be shown once. Read-outs that look alike come from different tables or passages of the source.

How the values were obtained:
[1] = system: UGT1A1*28; conditions: confirmation analysis, lapatinib plus letrozole arm
Experimental: Statistical analyses used for this investigation indicated the following. The two phenotypes that were evaluated were maximum on-treatment liver chemistry values for ALT and TBL with respect to the upper limit of normal. These phenotypes were evaluated in both case-control and quantitative trait analyses while key associations were examined qualitatively in the combined ALT/TBL cases. ALT and TBL cases were defined as maximum on-treatment elevations of ≧3×ULN and ≧1.5×ULN, respectively, and control subjects were defined as maximum on-treatment ALT or TBL of ≦1×ULN. […] Approximately 370 patients with an adequate, fully consented DNA sample had available clinical data for these phenotypes.

[2] = On-treatment liver chemistry (ALT, TBL, ALP), exploratory study PGx population, twelve AMBC trials
[3] = cancer patients receiving lapatinib; cited from earlier work
[4] = system: TNXB rs12153855; test: ALT case-control genetic association, exploratory study; assay type: in vivo, human; conditions: TNXB rs12153855 CC/CT
Source text: (§1) Germline DNA was extracted from peripheral blood (QiAmp DNA Blood Kit, Qiagen, Valencia, Calif.). This study evaluated candidate gene and genome-wide screening, performed in parallel, to detect case-control association signals in the exploratory cohort. Class I and II HLA genes (seven genes to 4-digit and three genes to 2-digit resolution) were typed by Laboratory Corporation of America (Burlington, N.C.) and Histogenetics (Ossining, N.Y.), or at GSK using the LABType® SSO Typing Test (One Lambda, Canoga Park, Calif.). […] Whole genome screen genotyping on the Illumina Human 1M-Duo platform was also conducted (Expression Analysis, Durham, N.C.).
(§2) For the exploratory study, initial analysis of the GWAS was done using logistic regression, carried out in PLINK (Purcell S, et al. American Journal of Human Genetics 2007; 81, 559-575) using the genotypic test option when three genotype classes were observed, or the additive test option when only two genotype classes were observed. […] In addition to the genotype term, all models included baseline ALT xULN, treatment group (for the exploratory study), and a sufficient number of principal components to account for potential confounding by population structure. Principal components were obtained from EIGENSOFT (Patterson N. et al. PLoS Genetics 2006; 2: e190), using study subjects and HapMap founders.
(§3) Genetic markers selected for confirmatory were required to achieve pre-defined p-value thresholds in the exploratory analysis of p≦0.05 for HLA markers, p≦0.01 for candidate gene markers and p≦10-4 for whole genome screen SNPs. For markers confirmed at p≦0.01, measures of potential clinical utility were evaluated. An allele or genotype(s) was designated which conferred a higher risk of ALT elevation and this was compared to the non-risk allele(s)/genotype(s) and the odds ratio (OR), positive predictive value (PPV), and negative predictive value (NPV) calculated.

[5] = system: HLA-DQA1*0201; conditions: for HLA-DQA1*0201 Carrier: Non Cases (number) / HLA-DQA1*0201 Non-Carrier: Non Cases (number) / HLA-DQA1*0201 Carrier: Cases (number) / HLA-DQA1*0201 Non-Carrier: Cases (number) / NPV (CI) / OR (CI) / PPV (CI): confirmatory cohort; for NPV (CI) / OR (CI) / PPV (CI): HLA-DQA1*0201 carriage, cases vs non-cases
Experimental: (§4) The two phenotypes that were evaluated were maximum on-treatment liver chemistry values for ALT and TBL with respect to the upper limit of normal. These phenotypes were evaluated in both case-control and quantitative trait analyses while key associations were examined qualitatively in the combined ALT/TBL cases. ALT and TBL cases were defined as maximum on-treatment elevations of ≧3×ULN and ≧1.5×ULN, respectively, and control subjects were defined as maximum on-treatment ALT or TBL of ≦1×ULN. […] Approximately 370 patients with an adequate, fully consented DNA sample had available clinical data for these phenotypes.
as §1, §2, §3

[6] = system: HLA-DRB1*0701
Experimental: as §4, §1, §2, §3

[7] = system: HLA-DQB1*0202
Experimental: as §4, §1, §2, §3

[8] = Exploratory Study ALT Cases (N=37)
[9] = Exploratory Study ALT Cases with HLA Data Available, at time of maximum ALT
[10] = Exploratory Study ALT Controls (N=286)
[11] = Exploratory Study PGx Population (12 trials, N=901), lapatinib monotherapy or combinations
[12] = Exploratory Study PGx Population (N=901)
[13] = restricted baseline (ALT and TBL <=1xULN at baseline)
[14] = unrestricted baseline (ALT and/or TBL >1xULN at baseline)
[15] = DRB1*0701 carriage, ALT cases, Confirmatory study
[16] = DRB1*0701 carriage, ALT controls, Confirmatory study
[17] = DQB1*0202 carriage, ALT cases, Confirmatory study
[18] = DQB1*0202 carriage, ALT controls, Confirmatory study

In the case of `CS(=O)(=O)CCNCc1ccc(-c2ccc3ncnc(Nc4ccc(OCc5cccc(F)c5)c(Cl)c4)c3c2)o1` [lapatinib, N-(3 chloro-4-{[(3-fluorophenyl)methyl]oxy}phenyl)-6-[5-({[2 (methylsulfonyl)ethyl]amino}methyl)-2-furanyl]-4-quinazolinamine bis(4 methylbenzenesulfonate)monohydrate], the “TBL cases carrying TA7/TA7 genotype” value ([1]; TBL cases >=1.5xULN (n=21)) is reported as 33%, the “TBL controls carrying TA7/TA7 genotype” value ([1]; controls (n=226)) is reported as 4% and the “Maximum on treatment ALT xULN: Mean(SD)” value [2, 8] is reported as 6.47(6.57) xULN. For the same molecule, the “Maximum on treatment ALT xULN: Median” value [2, 8] was 4.70 xULN, the “N of ALT cases with Cholestatic injury type” value [2, 9] was 4 and the “N of ALT cases with Hepatocellular injury type” value [2, 9] was 21. For the same molecule, the “N of ALT cases with Mixed injury type” value [2, 9] was 10, the “Maximum on treatment ALT xULN: Mean(SD)” value [2, 10] was 0.59(0.21) xULN and the “Maximum on treatment ALT xULN: Median” value [2, 10] was 0.59 xULN. For the same molecule, the “Maximum on treatment ALT xULN: Mean(SD)” value [2, 11] was 1.29 (1.96) xULN, the “Maximum on treatment ALT xULN: Median” value [2, 11] was 0.80 xULN and the “Maximum on treatment ALP xULN: Mean(SD)” value [2, 12] was 1.34 (1.40) xULN. The “Maximum on treatment ALP xULN: Median” value [2, 12] was 0.91 xULN, the “Maximum on treatment ALT > 3 xULN (%)” value [2, 12] was 7.3% and the “Maximum on treatment ALT > 5 xULN (%)” value [2, 12] was 2.7%. The “Maximum on treatment ALT > 8 xULN (%)” value [2, 12] was 1.0%, the “Maximum on treatment TBL xULN: Median” value [2, 12] was 0.68 xULN and the “Grade 3 ALT elevation (Common Toxicity Criteria for Adverse Events, v4.0), patients affected” value [3] was 1.6%. For the same molecule, the “Hy's Rule events, patients affected” value [3] was 0.2%, the “Carriage: cases (%)” value ([4]; ALT cases) was “(35%)” and the “Carriage: cases (n/N)” value ([4]; ALT cases) was 12/34. The “Carriage: controls (%)” value ([4]; ALT controls) was “(17%)”, the “Carriage: controls (n/N)” value ([4]; ALT controls) was 47/281 and the “HLA-DQA1*0201 Carrier: Non Cases (number)” value ([5]; ALT Cases > 3 xULN threshold) was 82. The “HLA-DQA1*0201 Non-Carrier: Non Cases (number)” value ([5]; ALT Cases > 3 xULN threshold) was 268, the “HLA-DQA1*0201 Carrier: Cases (number)” value ([5]; ALT Cases > 3 xULN) was 17 and the “HLA-DQA1*0201 Non-Carrier: Cases (number)” value ([5]; ALT Cases > 3 xULN) was 7. For the same molecule, the “HLA-DQA1*0201 Carrier: Non Cases (number)” value ([5]; ALT Cases > 5 xULN threshold) was 90, the “HLA-DQA1*0201 Non-Carrier: Non Cases (number)” value ([5]; ALT Cases > 5 xULN threshold) was 272 and the “HLA-DQA1*0201 Carrier: Cases (number)” value ([5]; ALT Cases > 5 xULN) was 9. For the same molecule, the “HLA-DQA1*0201 Non-Carrier: Cases (number)” value ([5]; ALT Cases > 5 xULN) was 3, the “HLA-DQA1*0201 Carrier: Non Cases (number)” value ([5]; ALT Cases > 8 xULN threshold) was 93 and the “HLA-DQA1*0201 Non-Carrier: Non Cases (number)” value ([5]; ALT Cases > 8 xULN threshold) was 274. The “HLA-DQA1*0201 Carrier: Cases (number)” value ([5]; ALT Cases > 8 xULN) was 6, the “HLA-DQA1*0201 Non-Carrier: Cases (number)” value ([5]; ALT Cases > 8 xULN) was 1 and the “% that carry DQA1*0201, Hepatocellular” value ([5]; Confirmatory Study ALT Cases) was 83%. For the same molecule, the “% that carry DQA1*0201, Mixed” value ([5]; Confirmatory Study ALT Cases) was 78%, the “N that carry DQA1*0201, Cholestatic” value ([5]; Confirmatory Study ALT Cases) was 0 and the “N that carry DQA1*0201, Hepatocellular” value ([5]; Confirmatory Study ALT Cases) was 10. The “N that carry DQA1*0201, Mixed” value ([5]; Confirmatory Study ALT Cases) was 7, the “Carriage: cases (n/N)” value ([5]; DQA1*0201 carriage, ALT cases (>3xULN), Confirmatory study, lapatinib plus letrozole) was 17/24 and the “Carriage: controls (n/N)” value ([5]; DQA1*0201 carriage, ALT controls, Confirmatory study, lapatinib plus letrozole) was 33/155. The PPV ([5]; Example 1A analysis: HLA-DQA1*0201, ALT cases vs all non-case subjects, 95% CI 0.11-0.27) was 0.18, the NPV ([5]; Example 1A analysis: HLA-DQA1*0201, ALT cases vs all non-case subjects, 95% CI 0.95-0.99) was 0.97 and the “NPV (CI)” value ([5]; ALT > 3 xULN) was 0.97 (0.95, 0.99) and 0.975 (0.948, 0.990). For the same molecule, the “OR (CI)” value ([5]; ALT > 3 xULN) was 7.9 (3.0, 23.3), the “PPV (CI)” value ([5]; ALT > 3 xULN) was 0.17 (0.10, 0.26) and the “NPV (CI)” value ([5]; ALT > 5 xULN) was 0.99 (0.97, 0.9977). The “OR (CI)” value ([5]; ALT > 5 xULN) was 9.1 (2.2, 52.8), the “PPV (CI)” value ([5]; ALT > 5 xULN) was 0.09 (0.04, 0.17) and the “NPV (CI)” value ([5]; ALT > 8 xULN) was 0.9964 (0.98, 0.9999). For the same molecule, the “OR (CI)” value ([5]; ALT > 8 xULN) was 17.7 (2.1, 816), the “PPV (CI)” value ([5]; ALT > 8 xULN) was 0.06 (0.02, 0.13) and the “DQA1*0201 alone carriage in non-cases” value ([5]; confirmatory study (82/350)) was 23%. For the same molecule, the “cumulative incidence of ALT elevation, DQA1*0201 carriers compared with non-carriers” value ([5]; lapatinib plus letrozole treated patients, FIG. 3) was “higher”, the “reduction of the rate of ALT elevation on removal of DQA1*0201 carriers” value ([5]; lapatinib plus letrozole treated patients, confirmatory study) was “more than two-thirds” and the “hepatobiliary adverse event cases carrying the DQA1*0201 allele, number” value ([5]; of eleven cases that provided DNA) was “six”. For the same molecule, the “combined ALT/TBL cases that were HLA-DQA1*0201 carriers” value [5, 13] was 6/6, the “combined ALT/TBL cases that were HLA-DQA1*0201 carriers” value [5, 14] was 1/6 and the “Carriage: cases (%)” value [6, 15] was “(67%)”. For the same molecule, the “Carriage: cases (n/N)” value [6, 15] was 16/24, the “Carriage: controls (%)” value [6, 16] was “(23%)” and the “Carriage: controls (n/N)” value [6, 16] was 35/155. The “combined ALT/TBL cases that were HLA-DRB1*0701 carriers” value [6, 13] was 6/6, the “combined ALT/TBL cases that were HLA-DRB1*0701 carriers” value [6, 14] was 1/6 and the “Carriage: cases (%)” value [7, 17] was “(63%)”. The “Carriage: cases (n/N)” value [7, 17] was 15/24, the “Carriage: controls (%)” value [7, 18] was “(19%)” and the “Carriage: controls (n/N)” value [7, 18] was 30/155. The “combined ALT/TBL cases that carried HLA-DQB1*0202” value [7, 13] was 5/6 and the “combined ALT/TBL cases that were HLA-DQB1*0202 carriers” value [7, 14] was 1/6.
